The values that follow come from publication PMC4394464, “Identification and Pharmacokinetics of Multiple Potential Bioactive Constituents after Oral Administration of Radix Astragali on Cyclophosphamide-Induced Immunosuppression in Balb/c Mice” (International Journal of Molecular Sciences, 2015).

Where two headings read alike, the source gives them in different places.

Data set [1] is described as follows: Pharmacokinetics of five main constituents in immunosuppressive mice plasma after oral administration of RA (HPLC-MS/MS). The class given is in vivo, Balb/c mice. Here is the method:
The maximum plasma concentration (Cmax) and the time of maximum plasma concentration (tmax) were obtained from the observed data (Table 3). The plasma concentration-time profiles for calycosin-7-O-glucoside, ononin, calycosin, formononetin and astragaloside IV are shown in Figure 4.
To quantify calycosin-7-O-glucoside, ononin, calycosin, formononetin and astragaloside IV in mice, a 10-μL IS solution was added into 50 μL of plasma and mixed for 30 s. Then, 1 mL ethyl acetate was added to the tube and vortexed for 3 min. […] Ten microliters of the supernatant were injected into the HPLC-MS/MS system.
The quantification was performed by an LC-MS/MS system, which consisted of an Agilent 1200 HPLC series system and an Agilent 6410 triple quadrupole mass spectrometer (Agilent Technol., Santa Clara, CA, USA) equipped with an electrospray ionization source. Samples were separated by a rapid resolution HT C18 column (2.1 mm × 50 mm, 1.8 μm, Agilent Technol.) at 30 °C. The mobile phase consisted of 0.1 formic acid both in methanol (A) and water (B) using a gradient elution program of 25%–50% A (0–5 min) and 50%–90% (5–10 min). The flow rate was 0.2 mL/min, and the injection volume was 10 μL. Detection was performed in the positive ion mode using multiple reaction monitoring (MRM) of the m/z 447.1/285.0 for calycosin-7-O-glucoside, m/z 431.1/269.0 for ononin, m/z 285.0/137.0 for calycosin, m/z 269.0/213.0 for formononetin, m/z 807.4/627.3 for astragaloside IV and m/z 271.1/151.0 for naringenin.

Data set [2] is described as follows: Profiling of absorbed constituents and metabolites in mice plasma after oral administration of RA (UFLC-DAD-Q-TOF-MS/MS). The following applies: oral RA extract 6 g/kg BW; cyclophosphamide-induced immunosuppressed Balb/c mice; plasma sampled 0.25-36 h; '-' = not detected.
Experimental: The peaks that appeared at the same position in the total ion chromatograms of both the dosed mice bio-samples and the RA extract, but not in the chromatograms of the controlled mice bio-samples, were regarded as absorbed constituents [22].
Following randomization into study groups, mice (6/group/male) received intraperitoneal injection once daily of cyclophosphamide (i.p. 80 mg/kg BW) for 6 days. Additionally, the control group was injected intraperitoneally with sterile physiological saline. […] Plasma was harvested by centrifugation at 3000× g for 10 min and then kept frozen at −70 °C until analysis.
After being vortexed for 1 min, the sample was centrifuged at 13,000× g at 4 °C for 30 min. The supernate was transferred into a fresh tube and evaporated with nitrogen. Then, the residue was dissolved in a 60-μL mobile phase with vortex mixing for 3 min and centrifuged at 13,000× g for 30 min. Finally, 10 μL of the supernatant were injected into the UFLC/DAD/Q-TOF-MS/MS system.
The multiple constituents in RA and the absorbed compounds in mice plasma were identified by the ultra-fast liquid chromatography/diode-array detector/quadrupole time-of-flight tandem mass spectrometry (UFLC/DAD/Q-TOF-MS/MS) method.
The mark [3] stands for this setting: male, Balb/c, mouse, in vivo, po, 6 g/kg.
[4] abbreviates: after oral administration of RA, immunosuppressive Balb/c mice plasma.
[5] abbreviates: male, mouse, oral RA extract 6 g/kg BW, immunosuppressive Balb/c mice plasma, 0-36 h, read-out: AUC(0–t).
Where [6] appears, read: male, mouse, oral RA extract 6 g/kg BW, immunosuppressive Balb/c mice plasma, read-out: AUC(0–∞).
Setting [7] is: male, mouse, oral RA extract 6 g/kg BW, immunosuppressive Balb/c mice plasma, read-out: Cmax.
The mark [8] stands for this setting: male, mouse, oral RA extract 6 g/kg BW, immunosuppressive Balb/c mice plasma, read-out: t1/2z (converted).
[9] abbreviates: male, mouse, oral RA extract 6 g/kg BW, immunosuppressive Balb/c mice plasma, read-out: tmax.

Consider `COc1ccc(-c2coc3cc(O)ccc3c2=O)cc1` [Peak 39, Formononetin], for which the “double-peak phenomenon, time of second peak” value (shortened to “double-peak phenomenon, time”) in data set [1] (male, Balb/c, mouse, in vivo, po) is reported as 6 h. Besides, in data set [1] (setting [3]), the AUC(0-inf) was determined as 256 ± 45.7 ng·h/mL, the AUC(0-t) worked out at 233 ± 47.8 ng·h/mL, the Cmax turned out to be 47.9 ng/mL and the time to peak (Tmax) was determined as 2 h. In data set [1] (setting [3]), the half-life was 3.99 ± 1.03 h. For the same compound, the “Source: Dosed Plasma (time points at which the compound was detected)” value (“Source: Dosed Plasma” below) in data set [2] is 0.25 to 24 h.

In the case of `COc1ccc(-c2coc3cc(O)ccc3c2=O)cc1O` [Peak 37, Calycosin], the “double-peak phenomenon, time” value in data set [1] (setting [4]) was found to be 6 h. Moreover, in data set [1] (setting [5]), the AUC(0-t) came out at 136 ± 41.4 ng·h/mL. Besides, the AUC(0-inf) in data set [1] (setting [6]) was 155 ± 37.7 ng·h/mL. The Cmax in data set [1] (setting [7]) amounted to 33 ng/mL. Also, in data set [1] (setting [8]), the half-life was 2.21 ± 0.92 h. For the same compound, the time to peak (Tmax) in data set [1] (setting [9]) was 1.5 h. In data set [2], the “Source: Dosed Plasma” value was 0.25 to 24 h.

Consider `COc1ccc(-c2coc3cc(O[C@@H]4O[C@H](CO)[C@@H](O)[C@H](O)[C@H]4O)ccc3c2=O)cc1O` (single isomer, unassigned) [Peak 29, Calycosin-7-O-glucoside], for which, in data set [1] (setting [5]), the AUC(0-t) turned out to be 108 ± 37.1 ng·h/mL. Besides, the AUC(0-inf) in data set [1] (setting [6]) worked out at 127 ± 40.3 ng·h/mL. For the same compound, the highest concentration (Cmax) in data set [1] (setting [7]) turned out to be 33.4 ng/mL. In addition, in data set [1] (setting [8]), the half-life is 2.61 ± 0.67 h. Besides, the time of peak concentration (Tmax) in data set [1] (setting [9]) is 1.5 h. In data set [2], the “Source: Dosed Plasma” value lay within 0.25 to 24 h.

Turning to `CC(C)(O)[C@@H]1CC[C@](C)(C2[C@@H](O)C[C@@]3(C)[C@@H]4C[C@H](O[C@@H]5O[C@H](CO)[C@@H](O)[C@H](O)[C@H]5O)C5C(C)(C)[C@@H](O[C@@H]6OC[C@@H](O)[C@H](O)[C@H]6O)CC[C@@]56C[C@@]46CC[C@]23C)O1` (single isomer, unassigned) [Peak 45, Astragaloside IV], the AUC(0-t) in data set [1] (male, mouse, in vivo, 6 g/kg BW, oral RA, immunosuppressive Balb/c mice plasma, read-out: AUC0–t) is 695 ± 179 ng·h/mL; in data set [1] (male, mouse, in vivo, oral RA extract 6 g/kg BW, immunosuppressive Balb/c mice plasma, 0-36 h, read-out: AUC(0–t)) it was 695 ± 179 ng·h/mL. The Cmax stood at 129 ng/mL in data set [1] (male, mouse, in vivo, 6 g/kg BW, oral RA, immunosuppressive Balb/c mice plasma, read-out: Cmax) and 129 ng/mL in data set [1] (male, mouse, in vivo, oral RA extract 6 g/kg BW, immunosuppressive Balb/c mice plasma, read-out: Cmax). In data set [1] (male, mouse, in vivo, oral RA extract 6 g/kg BW, immunosuppressive Balb/c mice plasma, read-out: AUC(0–∞)), the AUC(0-inf) worked out at 722 ± 197 ng·h/mL. The half-life in data set [1] (male, mouse, in vivo, oral RA extract 6 g/kg BW, immunosuppressive Balb/c mice plasma, read-out: t1/2z (converted)) was 3.48 ± 1.15 h. Moreover, the Tmax in data set [1] (male, mouse, in vivo, oral RA extract 6 g/kg BW, immunosuppressive Balb/c mice plasma, read-out: tmax) stood at 1.5 h. Further, the “Source: Dosed Plasma” value in data set [2] was in the range of 0.25 to 24 h.

Regarding `COc1ccc(-c2coc3cc(O[C@@H]4O[C@H](CO)[C@@H](O)[C@H](O)[C@H]4O)ccc3c2=O)cc1` (single isomer, unassigned) [Peak 33, Ononin], the “double-peak phenomenon, time” value in data set [1] (setting [4]) worked out at 4 h. Besides, the AUC(0-t) in data set [1] (setting [5]) is 228 ± 59.7 ng·h/mL. In data set [1] (setting [6]), the AUC(0-inf) was 239 ± 47.4 ng·h/mL. The Cmax in data set [1] (setting [7]) was 51.4 ng/mL. Further, the half-life in data set [1] (setting [8]) was 1.96 ± 0.34 h. The Tmax in data set [1] (setting [9]) was 1.5 h. Besides, in data set [2], the “Source: Dosed Plasma” value lay in the range of 0.25 to 24 h.

Broadly, the Cmax is the maximum level reached in the sampled fluid or tissue. By Tmax is commonly meant the time from dosing to the highest level.
